From the supplement of paper PMC10307832

Legend:
Test in all cases: relative viability (nuclei count vs DMSO), 5 days (fraction); higher = more cells survive
[1] = test system: 201T
Procedure, shortened: (§1)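 Dosing by pin tool came one day after lung cancer cell lines were seeded in 1536-well plates, using either one drug or a fixed anchor-drug dose plus five library-drug doses (not always all listed) in √10 steps. After 5 days, nuclei were counted on 4× images. Relative viability is treated-well nuclei count divided by vehicle-well nuclei count, and values are medians of duplicate plates.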

[2] = test system: SW 1573
Procedure, shortened: as §1

[3] = test system: NCI-H460
Procedure, shortened: as §1

[4] = test system: NCI-H727
Procedure, shortened: as §1

[5] = test system: NCI-H1793
Procedure, shortened: as §1

[6] = test system: HCC-44
Procedure, shortened: as §1

[7] = test system: NCI-H2228
Procedure, shortened: as §1

[8] = test system: LCLC-97TM1
Procedure, shortened: as §1

[9] = test system: PC-14
Procedure, shortened: as §1

[10] = test system: NCI-H23
Procedure, shortened: as §1

Cc1sc2c(c1C)C(c1ccc(Cl)cc1)=N[C@@H](CC(=O)OC(C)(C)C)c1nnc(C)n1-2 [JQ1] + C[C@]1(O)C[C@@H](c2nc(-c3ccc4ccc(-c5ccccc5)nc4c3)c3c(N)nccn32)C1 [Linsitinib] (partner 1 µM)
relative viability ([1]; first compound 0.04 µM): 0.996
relative viability ([1]; first compound 0.1265 µM): 1.08
relative viability ([1]; first compound 0.4 µM): 0.924
relative viability ([1]; first compound 1.265 µM): 0.607
relative viability ([1]; first compound 4 µM): 0.511
relative viability ([2]; first compound 0.04 µM): 0.697
relative viability ([2]; first compound 0.1265 µM): 0.789
relative viability ([2]; first compound 0.4 µM): 0.711
relative viability ([2]; first compound 1.265 µM): 0.339
relative viability ([2]; first compound 4 µM): 0.323
relative viability ([3]; first compound 0.04 µM): 0.661
relative viability ([3]; first compound 0.1265 µM): 0.54
relative viability ([3]; first compound 0.4 µM): 0.278
relative viability ([3]; first compound 1.265 µM): 0.0494
relative viability ([3]; first compound 4 µM): 0.0357
relative viability ([4]; first compound 0.04 µM): 0.374
relative viability ([4]; first compound 0.1265 µM): 0.313
relative viability ([4]; first compound 0.4 µM): 0.343
relative viability ([4]; first compound 1.265 µM): 0.244
relative viability ([4]; first compound 4 µM): 0.234
relative viability ([5]; first compound 0.04 µM): 0.936
relative viability ([5]; first compound 0.1265 µM): 0.755
relative viability ([5]; first compound 0.4 µM): 0.923
relative viability ([5]; first compound 1.265 µM): 0.715
relative viability ([5]; first compound 4 µM): 0.952
relative viability ([6]; first compound 0.04 µM): 0.704
relative viability ([6]; first compound 0.1265 µM): 0.448
relative viability ([6]; first compound 0.4 µM): 0.32
relative viability ([6]; first compound 1.265 µM): 0.31
relative viability ([6]; first compound 4 µM): 0.283
relative viability ([7]; first compound 0.04 µM): 1
relative viability ([7]; first compound 0.1265 µM): 0.743
relative viability ([7]; first compound 0.4 µM): 0.688
relative viability ([7]; first compound 1.265 µM): 0.404
relative viability ([7]; first compound 4 µM): 0.357
relative viability ([8]; first compound 0.1265 µM): 0.181
relative viability ([8]; first compound 0.4 µM): 0.212
relative viability ([8]; first compound 1.265 µM): 0.125
relative viability ([8]; first compound 4 µM): 0.156
relative viability ([9]; first compound 0.04 µM): 0.936
relative viability ([9]; first compound 0.1265 µM): 0.735
relative viability ([9]; first compound 0.4 µM): 0.779
relative viability ([9]; first compound 1.265 µM): 0.611
relative viability ([9]; first compound 4 µM): 0.356
relative viability ([10]; first compound 0.04 µM): 0.513
relative viability ([10]; first compound 0.1265 µM): 0.555
relative viability ([10]; first compound 0.4 µM): 0.385
relative viability ([10]; first compound 1.265 µM): 0.339
relative viability ([10]; first compound 4 µM): 0.288
